# Where two headings read alike, the source gives them in different places.
# Assays:
# tobacco leaf tissue = test: Visible tissue damage in infiltrated transgenic tobacco leaf panels
# Experimental: (§1) In order to test whether oxidative stress is likely to induce high levels of AoPRT-L promoter-driven gene expression, H2O2 was infiltrated into leaf panels of transgenic tobacco harbouring the AoPRT-L-promoter-GUS construct (FIG. 13a). […] However, H2O2 has a limited half-life (around 10 mins—Levine et al., (1994) Cell 79: 583-593) in the apoplast, thus the experiment was repeated using a stable peroxide, t-butyl-hydroperoxide (FIG. 13b).
# [1] = tested on: AoPRT-L promoter-GUS fusion; test: AoPRT-L promoter-GUS expression in transgenic tobacco (fluorimetric GUS assay); type: in vivo, Nicotiana tabacum (cv Samsun); conditions: for AoPRT-L-promoter-GUS expression after infiltration of pro-oxidant: infiltrated into leaf panels, over the concentration range tested; for Induction of AoPRT-L promoter-GUS by wound signals: transgenic tobacco, summary statement; for Time-dependent induction of AoPRT-L promoter-GUS fusion: treatment with 1 mM, time course; for Induction of AoPRT-L promoter-GUS fusion: root-fed 3 days, leaf cores
# Experimental: The AoPRT-L promoter construct (p22-GUS(INT) Bin 19) was transformed into Nicotiana tabacum (cv Samsun) using standard Agrobacterium tumefaciens-mediated transformation techniques (Draper et al., (1988): Plant Genetic Transformation and Gene Expression—A Laboratory Manual. Blackwell Scientific Publications, Oxford, UK). The expression of the GUS gene driven by the AoPRT-L promoter was analysed using assays described previously (Draper et al., (1988) supra).
# Plants were sprayed once, allowed to dry and then sprayed again on the same day (day 0). After 3 or 6 days leaf cores were taken and GUS activity was measured using a standard fluorimetric assay. […] Leaf cores from tobacco harbouring the AoPRT-L promoter fusion with GUS were floated for 3 or 6 days on water containing increasing concentrations of BTH after which time GUS activity in the leaf discs was measured fluorometrically.
# Wounding of tobacco leaves (using the hammer method) or infection of tobacco with Pseudomonas syringae pathovar phaseolicola induces local accumulation of the wound-related phytohormone jasmonic acid (JA) (Kenton et al., submitted; Mur et al., (1997) Trends in Microbiol 5:297-300). Leaf cores from tobacco harbouring the AoPRT-L promoter fusion with GUS were floated for 3 days on water containing increasing concentrations of JA after which time GUS activity in the leaf discs was measured using a standard fluorimetric assay. […]
# as §1
# [2] = tested on: extracellular aPR-5 proteins; conditions: leaf discs, cited from earlier work
# AoPRT-L-GUS = AoPRT-L-GUS expression in transgenic maize; type: in vivo, Zea mays; conditions: treated with SA or BTH
# Description: Maize plants containing AoPRT-L-GUS were produced by biolistic transformation of callus material with pJIT60-P22 GUS int.
# AoPRT-Lx3 promoter-GUS = test: pAoPRT-Lx3-GUS expression in transgenic tobacco; type: in vivo, samsun tobacco; conditions: on SA or BTH induction
# Description: In order to construct an AoPRT-L promoter that has higher expression, the region −247 bp to −133 bp was amplified from p22-JIT60 and placed twice in front of a −247 bp AoPRT-L promoter. This AoPRT-Lx3 promoter was constructed as follows: The primers below were used to PCR the 0 bp to −247 bp AoPRT-L promoter from p22-JIT60.
# This fragment was cloned as a KpnI, XhoI fragment between the KpnI and SalI sites of the pUC19-derived plasmid forming pAoPRT-Lx2. The −133 bp to −247 bp pAoPRT-L fragment was then cloned as a KpnI, XhoI fragment between the KpnI and SalI sites of pAoPRT-Lx2 forming pAoPRT-Lx3 (FIG. 15c). Next the AoPRT-Lx3 promoter was cloned as an KpnI, PstI fragment into KpnI, PstI-cut p22-JIT60 forming pAoPRT-Lx3-JIT60. The pAoPRT-Lx3 was transferred from pAoPRT-L-x-JIT60 as a KpnI, BamHI fragment into KpnI, BamHI-cut p22-GUS (INT) JIT 60. Finally the resulting pAoPRT-Lx3 -GUS-CaMV poly A chimeric gene was cloned as KpnI, XhoI fragments into KpnI, SalI-cut pBin19 and transformed into samsun tobacco.
# [3] = tested on: pGB24 (pAoPRT-L-LhG4 / pOP-GUS); test: pGB24 amplification construct GUS expression in tobacco; type: in vivo; conditions: on SA or BTH induction
# Description: (§2) A way of increasing the activity of the AoPRT-L promoter whilst retaining tight regulation of the promoter is to use a system that will amplify expression of the AoPRT-L promoter. An amplification system was built using a transactivator (described in WO98/05789 and Moore et al., (1997) Proc. Natl. Acad. Sci. USA. 95, 379-381). The AoPRT-L promoter is linked to a synthetic transactivator (LhG4) and the target promoter of the transactivator (pOP) to the gene to be expressed. LhG4 consists of a mutated E. coli lacI gene fused to the transcriptional activator domain of the GALA from yeast. pOP910 is a minimal 35S CaMV promoter with two binding sites for the LhG4 protein. Since the transactivator can initiate multiple rounds of transcription from pOP, there is amplification of the initial signal that activated the AoPRT-L promoter.
# (§3) The amplification system was constructed by the following steps. The pOP910 promoter was excised from pX-910TAG (K. Palme, Max Planck Institut fur Zuchtungsforchung, Koln, Germany) as a SstI-NcoI fragment and cloned into SstI,NcoI-cut pDH68 (pDH68 consists of a Pea Plastocyanin promoter (Pwee and Gray (1993) Plant J. 3, 437-449) linked to an intron GUS gene (D. Twell, Leicester University) cloned between the SstI and EcoRI sites of the vector pJIT30 (Guerineau et al., (1990) Plant Mol. Biol. 15, 127-136)). […]
# PR-1a promoter-GUS = conditions: transgenic tobacco, cited from earlier work; for PR-1a promoter-GUS / endogenous PR-1a expression: direct application
# [4] = tested on: pGB24 (pAoPRT-L-LhG4 / pOP-GUS); test: pGB24 amplification construct GUS expression in B. napus; type: in vivo, B. napits; conditions: on SA or BTH induction
# Description: as §2, §3
# PR gene promoters = conditions: cited from earlier work
# AoPRT-L mRNA = AoPRT-L mRNA accumulation in Asparagus (Northern hybridisation); type: in vivo, Asparagus officinalis; conditions: treated Asparagus
# Description: In chopped etiolated A. officinalis seedlings (<=0.5 cm in length) the AoPRT-L transcript was detectable from 3 days after wounding (FIG. 3b).
# barley aPR5 = conditions: in vivo; cited from earlier work
# [5] = tested on: barley homologue of rice thaumatin-like protein; conditions: 1 ppm; cited from earlier work
smiles,measurement,setting,value
"OO [H2O2, hydrogen peroxide]",Visible tissue damage after infiltration,tobacco leaf tissue; in vivo,no visible symptoms
same,AoPRT-L-promoter-GUS expression after infiltration of pro-oxidant,[1],failed to induce
"CC(=O)Oc1ccccc1C(=O)O [aspirin, acetyl-SA]",Induction of extracellular aPR-5 proteins,[2]; 5 mM,induced
O=C(O)C(=O)O [oxalic acid],Induction of extracellular aPR-5 proteins,[2]; 5 mM,induced
O=C(O)Cc1cccc2ccccc12 [NAA],Induction of extracellular aPR-5 proteins,[2]; 10 mM,induced
"CSC(=O)c1cccc2nnsc12 [BTH, benzo(1,2,3)thiadiazole-7-carbothoic acid S-methyl ester]",GUS activity of AoPRT-L-GUS maize on treatment,AoPRT-L-GUS,exhibited GUS activity
same,GUS activity of pAoPRT-Lx3-GUS plants vs equivalent AoPRT-L-GUS plants,AoPRT-Lx3 promoter-GUS,significantly greater level of GUS activity
same,GUS activity of pGB24 plants vs equivalent AoPRT-L-GUS plants,[3],significantly greater level of GUS activity
same,PR-1a promoter-GUS / endogenous PR-1a expression,PR-1a promoter-GUS,high levels
same,GUS activity of pGB24 plants vs equivalent AoPRT-L-GUS plants,[4],significantly greater level of GUS activity
same,PR gene expression induced by commercial preparations,PR gene promoters; all plants tested including arabidopsis and wheat,very strong PR gene expression
same,Concentration sufficient to induce PR gene expression,PR gene promoters; aqueous solution,1.2 µM
same,Persistence of gene induction,PR gene promoters; spraying,at least 10 days
same,Time of maximal gene induction after application,PR gene promoters; spraying,2 days
same,BTH concentration at which BTH-induced GUS activity is observed,[1]; leaf cores floated 3 or 6 days,1.25 µM
same,Induction of AoPRT-L promoter-driven GUS expression by foliar spray,"[1]; sprayed twice on day 0, 20 μM BTH vs 1 mM SA, leaf cores after 3 or 6 days",as effective an inducer of GUS expression driven by the AoPRT-L promoter as was SA
O=P(O)(O)CCCl [ethephon],Induction of extracellular aPR-5 proteins,[2]; 10 mM,induced
same,AoPRT-L mRNA accumulation,AoPRT-L mRNA,not induced
"CC/C=C\C[C@H]1C(=O)CC[C@@H]1CC(=O)O [JA, jasmonic acid]",Expression of barley aPR5,barley aPR5,induces expression
same,Induction of AoPRT-L promoter-driven GUS activity in leaf discs,"[1]; leaf cores floated 3 days on increasing concentrations, compared with 1 mM SA",failed to induce any increase
same,Induction of AoPRT-L promoter-GUS by wound signals,[1],not induced
[Cl][Mn][Cl] [MnCl2],Induction of extracellular aPR-5 proteins,[2]; 5 mM,induced
"[Cl-].[Na+] [salt, NaCl]",Induced expression of the AoPRT-L-promoter-GUS construct ('Neither ... induced'),[1]; in vivo,Neither
"O=C(O)c1cc(Cl)nc(Cl)c1 [INA, dichloroisonicotinic acid]",Expression of barley homologue of rice thaumatin-like protein,[5],induces expression
same,PR-1a promoter-GUS / endogenous PR-1a expression,PR-1a promoter-GUS,high levels
C=C [ethylene],Induction of AoPRT-L promoter-GUS by wound signals,[1],not induced
"O=C(O)c1ccc(O)cc1 [4hBA, 4-hydroxybenzoic acid]",Time-dependent induction of AoPRT-L promoter-GUS fusion,[1],inactive
[Cl][Hg][Cl] [HgCl3],Induction of extracellular aPR-5 proteins,[2]; 5 mM,induced
CC(C)(C)OO [t-butyl-hydroperoxide],Visible tissue damage after infiltration,"tobacco leaf tissue; leaf panels, higher concentrations for t-butyl-hydroperoxide",severe visible tissue damage
same,AoPRT-L-promoter-GUS expression after infiltration of pro-oxidant,[1],no GUS expression was detected
"O=C(O)c1ccccc1O [SA, salicylic acid]",GUS activity of AoPRT-L-GUS maize on treatment,AoPRT-L-GUS,exhibited GUS activity
same,GUS activity of pAoPRT-Lx3-GUS plants vs equivalent AoPRT-L-GUS plants,AoPRT-Lx3 promoter-GUS,significantly greater level of GUS activity
same,GUS activity of pGB24 plants vs equivalent AoPRT-L-GUS plants,[3],significantly greater level of GUS activity
same,PR-1a promoter-GUS / endogenous PR-1a expression,PR-1a promoter-GUS,high levels
same,SA concentration at which PR-1a-GUS is clearly induced,PR-1a promoter-GUS,10 to 100 µM
same,GUS activity of pGB24 plants vs equivalent AoPRT-L-GUS plants,[4],significantly greater level of GUS activity
same,Induction of expression of PR gene promoters over basal levels,"PR gene promoters; spraying, injection or root-feeding",50-1000 fold
same,Time after start of treatment at which induction is observable,[1]; 1 mM SA,1 days
same,GUS activity of AoPRT-L-GUS plants as fraction of that in pPR-1a-GUS-transformed tobacco,[1]; SA induction,about ⅓
same,Induction of AoPRT-L promoter-GUS fusion,[1]; 0.1 mM,little induction
same,Induction of AoPRT-L promoter-GUS fusion,[1]; 1 mM,Substantial induction
same,Time-dependent induction of AoPRT-L promoter-GUS fusion,[1],clear time-dependent induction
same,AoPRT-L mRNA accumulation,AoPRT-L mRNA,accumulation was observed
"CC1=CC(=O)CC(C)(C)[C@@]1(O)/C=C/C(C)=C\C(=O)O [ABA, abscisic acid]",Level of induction relative to that observed using SA,[1]; ABA induction vs SA,an order of magnitude lower
same,AoPRT-L-promoter-GUS in leaf discs,"[1]; high concentration of ABA, leaf discs",slight increase
O=C(O)CC(O)(CC(=O)O)C(=O)O [citric acid],Induction of extracellular aPR-5 proteins,[2]; 5 mM,induced
"O=C(O)COc1ccc(Cl)cc1Cl [2,4 D]",Induction of extracellular aPR-5 proteins,[2]; 10 mM,induced
